In US20230159453A1 (COCRYSTAL PHARMA, INC., priority 2020, published 2023):
pIC50: −log10 of the molar value.

Biological target: SARS2 protease (Severe acute respiratory syndrome coronavirus 2, UniProt P0DTD1)
Assay: SARS-CoV-2 protease inhibition assay (SARS2 FRET protease assay)
Assay type: biochemical
Conditions: SARS-CoV-2 protease 25 nM, FRET, peptide substrate 1.3 μM, 30 minutes at 30° C., compounds 20 μM to 1.0 nM; read-out: IC50

SMILES	pIC50
CC(C)C[C@H](NC(=O)OC(Cc1cccc(Cl)c1)c1ccccc1)C(=O)N[C@@H](C[C@@H]1CCNC1=O)C(=O)C(=O)NC1CC1 (stereo partly drawn) [Compound C147, 2-(3-Chlorophenyl)-1-phenylethyl ((S)-1-(((S)-4-(cyclopropylamino)-3,4-dioxo-1-((S)-2-oxopyrrolidin-3-yl)butan-2-yl)amino)-4-methyl-1-oxopentan-2-yl) carbamate]	5.52
CC(C)C[C@H](NC(=O)OC(c1ccccc1)C(F)(F)c1cccc(Cl)c1)C(=O)N[C@@H](C[C@@H]1CCNC1=O)C(=O)CO (some centres unmarked) [Compound C279]	5.18
CCN1CCN(C(=O)C(=O)[C@H](C[C@@H]2CCNC2=O)NC(=O)[C@H](CC(C)C)NC(=O)OC(c2ccccc2)C(C)(C)c2cccc(Cl)c2)CC1 (some centres unmarked) [Compound C287]	< 4.70
CC1(C)CC(CC(NC(=O)[C@H](CC2CCCCC2)NC(=O)OC(c2cccc(Cl)c2)C(C)(C)c2cccc(Cl)c2)C(=O)C(N)=O)C(=O)N1 (some centres unmarked) [Compound C288]	5.65
CC(C)C[C@H](NC(=O)OCC(C)(C)c1cccc(Cl)c1)C(=O)N[C@H](CO)C[C@@H]1CCNC1=O [Compound C101, 2-(3-Chlorophenyl)-2-methylpropyl ((S)-1-(((S)-1-hydroxy-3-((S)-2-oxopyrrolidin-3-yl)propan-2-yl)amino)-4-methyl-1-oxopentan-2-yl)carbamate]	< 4.70
COc1cccc2[nH]c(C(=O)N[C@@H](CC3CCCCC3)C(=O)NC(C=O)CC3CC4(CCOCC4)NC3=O)cc12 (stereo partly drawn) [Compound C179, N-((2S)-3-cyclohexyl-1-oxo-1-((1-oxo-3-(2-oxo-8-oxa-1-azaspiro[4.5]decan-3-yl)propan-2-yl)amino)propan-2-yl)-4-methoxy-1H-indole-2-carboxamide]	10.82
CC(C)(C)C(=O)N1CCC2(CC1)CC(CC(NC(=O)[C@H](CC1CCCCC1)NC(=O)OCc1cccc(Cl)c1)C(=O)C(=O)NC1CC1)C(=O)N2 (stereo partly drawn) [Compound C188, 3-Chlorobenzyl ((2S)-3-cyclohexyl-1-((4-(cyclopropylamino)-3,4-dioxo-1-(2-oxo-8-pivaloyl-1,8-diazaspiro[4.5]decan-3-yl)butan-2-yl)amino)-1-oxopropan-2-yl)carbamate]	5.72
CC(C)(c1cccc(Cl)c1)C(OC(=O)N[C@@H](CC1CCCCC1)C(=O)N[C@@H](C[C@@H]1CCNC1=O)C(=O)C(N)=O)c1ccc(Cl)cc1 (stereo partly drawn) [Compound C134, 2-(3-Chlorophenyl)-1-(4-chlorophenyl)-2-methylpropyl ((S)-1-(((S)-4-amino-3,4-dioxo-1-((S)-2-oxopyrrolidin-3-yl)butan-2-yl)amino)-3-cyclohexyl-1-oxopropan-2-yl)carbamate]	6.12
CC(C)(c1cccc(Cl)c1)C(OC(=O)N[C@@H](Cc1ccccc1)C(=O)N[C@@H](C[C@@H]1CCNC1=O)C(=O)C(=O)NC1CC1)c1ccccc1 (some centres unmarked) [Compound C284]	5.80
CC(C)C[C@H](NC(=O)OC(Cc1cccc(Cl)c1)c1ccccc1)C(=O)N[C@@H](C[C@@H]1CCNC1=O)C(=O)NS(=O)(=O)C1CC1 (some centres unmarked) [Compound C249]	< 4.70
O=C[C@H](C[C@@H]1CCNC1=O)NC(=O)[C@H](CC1CCCCC1)NC(=O)OC(Cc1cccc(Cl)c1)c1ccccc1 (stereo partly drawn) [Compound C109, 2-(3-Chlorophenyl)-1-phenylethyl ((S)-3-cyclohexyl-1-oxo-1-(((S)-1-oxo-3-((S)-2-oxopyrrolidin-3-yl)propan-2-yl)amino)propan-2-yl)carbamate]	8.70
COc1cccc2[nH]c(C(=O)N[C@@H](CC3CCCCC3)C(=O)NC(CC3CC4(CCN(C(C)=O)CC4)NC3=O)C(=O)C(N)=O)cc12 (stereo partly drawn) [Compound C117, N-((2S)-1-((1-(8-Acetyl-2-oxo-1,8-diazaspiro[4.5]decan-3-yl)-4-amino-3,4-dioxobutan-2-yl)amino)-3-cyclohexyl-1-oxopropan-2-yl)-4-methoxy-1H-indole-2-carboxamide]	7.26
CC1(C)CC(CC(NC(=O)[C@H](CC2CCCCC2)NC(=O)OC(c2cccc(Cl)c2)C(C)(C)c2cccc(Cl)c2)C(=O)C(=O)NC2CC2)C(=O)N1 (some centres unmarked) [Compound C281]	5.61
CC(C)C[C@H](NC(=O)OC(Cc1cccc(Cl)c1)c1cccc(Cl)c1)C(=O)N[C@@H](C[C@@H]1CCNC1=O)C(=O)C(=O)NC1CC1 (stereo partly drawn) [Compound C242, 1,2-Bis(3-chlorophenyl)ethyl ((S)-1-(((S)-4-(cyclopropylamino)-3,4-dioxo-1-((S)-2-oxopyrrolidin-3-yl)butan-2-yl)amino)-4-methyl-1-oxopentan-2-yl)carbamate]	7.13
CC(C)(c1cccc(Cl)c1)C(OC(=O)N[C@@H](Cc1ccccc1)C(=O)N[C@@H](C[C@@H]1CCNC1=O)C(=O)C(N)=O)c1ccccc1 (some centres unmarked) [Compound C254]	5.37
O=C(N[C@@H](CC1CCCCC1)C(=O)N[C@@H](C[C@@H]1CCNC1=O)C(=O)C(=O)NC1CC1)OC(Cc1cccc(Cl)c1)c1cccc(Cl)c1 (stereo partly drawn) [Compound C241, 1,2-Bis(3-chlorophenyl)ethyl ((S)-3-cyclohexyl-1-(((S)-4-(cyclopropylamino)-3,4-dioxo-1-((S)-2-oxopyrrolidin-3-yl)butan-2-yl)amino)-1-oxopropan-2-yl)carbamate]	5.63
CC(=O)N1CCC2(CC1)CC(CC(NC(=O)C(Cc1ccccc1)NC(=O)c1cnc3ccccc3n1)C(=O)C(N)=O)C(=O)N2 (stereo in doubt) [Compound C130, N-((2S)-1-((1-(8-acetyl-2-oxo-1,8-diazaspiro[4.5]decan-3-yl)-4-amino-3,4-dioxobutan-2-yl)amino)-1-oxo-3-phenylpropan-2-yl)quinoxaline-2-carboxamide]	< 4.70
CC(C)(c1cccc(Cl)c1)[C@H](OC(=O)N[C@@H](CC1CCCCC1)C(=O)N[C@@H](C[C@@H]1CCNC1=O)C(=O)C(=O)NC1CC1)c1cccc(F)c1 [Compound C185, (R)-2-(3-chlorophenyl)-1-(3-fluorophenyl)-2-methylpropyl ((S)-3-cyclohexyl-1-(((S)-4-(cyclopropylamino)-3,4-dioxo-1-((S)-2-oxopyrrolidin-3-yl)butan-2-yl)amino)-1-oxopropan-2-yl)carbamate]	6.85
COc1cccc2[nH]c(C(=O)N[C@@H](CC(C)C)C(=O)NC(CC3CC4(CCCCC4)NC3=O)C(=O)C(=O)NC3CC3)cc12 (stereo partly drawn) [Compound C234, N-((2S)-1-((4-(cyclopropylamino)-3,4-dioxo-1-(2-oxo-1-azaspiro[4.5]decan-3-yl)butan-2-yl)amino)-4-methyl-1-oxopentan-2-yl)-4-methoxy-1H-indole-2-carboxamide]	9.10
CC(C)C[C@H](NC(=O)OC1(Cc2ccccc2)CCC1)C(=O)N[C@@H](C[C@@H]1CCNC1=O)C(=O)C(N)=O [Compound C73, 1-Benzylcyclobutyl ((S)-1-(((S)-4-amino-3,4-dioxo-1-((S)-2-oxopyrrolidin-3-yl)butan-2-yl)amino)-4-methyl-1-oxopentan-2-yl)carbamate]	6.22
CC(C)(c1cccc(Cl)c1)[C@@H](OC(=O)N[C@@H](CC1CCCCC1)C(=O)N[C@@H](C[C@@H]1CCNC1=O)C(=O)C(=O)NC1CC1)c1cccc(F)c1 [Compound C184, (S)-2-(3-chlorophenyl)-1-(3-fluorophenyl)-2-methylpropyl ((S)-3-cyclohexyl-1-(((S)-4-(cyclopropylamino)-3,4-dioxo-1-((S)-2-oxopyrrolidin-3-yl)butan-2-yl)amino)-1-oxopropan-2-yl)carbamate]	5.63
CC(C)(c1cccc(Cl)c1)C(OC(=O)N[C@@H](CC1CCCCC1)C(=O)N[C@H](C=O)C[C@@H]1CCNC1=O)c1ccc(Cl)cc1 (stereo partly drawn) [Compound C143, 2-(3-Chlorophenyl)-1-(4-chlorophenyl)-2-methylpropyl ((S)-3-cyclohexyl-1-oxo-1-(((S)-1-oxo-3-((S)-2-oxopyrrolidin-3-yl)propan-2-yl)amino)propan-2-yl) carbamate]	8.44
CCCCCOC(=O)N[C@@H](CC(C)C)C(=O)NC(C)(C=O)CC1CCNC1=O (stereo partly drawn) [Compound C65, Pentyl ((2S)-4-methyl-1-((2-methyl-1-oxo-3-(2-oxopyrrolidin-3-yl)propan-2-yl)amino)-1-oxopentan-2-yl) carbamate]	4.57
COc1cccc2[nH]c(C(=O)N[C@@H](CC3CCCCC3)C(=O)NC(C=O)CC3CC4(CCCCC4)NC3=O)cc12 (stereo partly drawn) [Compound C193, N-((2S)-3-Cyclohexyl-1-oxo-1-((1-oxo-3-(2-oxo-1-azaspiro[4.5]decan-3-yl)propan-2-yl)amino)propan-2-yl)-4-methoxy-1H-indole-2-carboxamide]	9.15
CC(C)C[C@H](NC(=O)OC(c1cccc(Cl)c1)C(F)(F)c1cccc(Cl)c1)C(=O)N[C@H](C=O)C[C@@H]1CCNC1=O (some centres unmarked) [Compound C266]	7.70
O=C(N[C@@H](CC1CCCCC1)C(=O)N[C@@H](C[C@@H]1CCNC1=O)C(=O)C(=O)NC1CC1)OC(Cc1cccc(Cl)c1)c1ccccc1 (some centres unmarked) [Compound C158]	5.58
CCOP(=O)(OCC)C(O)C(CC1CC2(CCN(C(C)=O)CC2)NC1=O)NC(=O)[C@H](CC(C)C)NC(=O)c1cc2ccccc2[nH]1 (stereo partly drawn) [Compound C94, Diethyl (2-((S)-2-(1H-indole-2-carboxamido)-4-methylpentanamido)-3-(8-acetyl-2-oxo-1,8-diazaspiro[4.5]decan-3-yl)-1-hydroxypropyl)phosphonate]	5.59
CCCC[C@H](NC(=O)OC(c1ccccc1)C(C)(C)c1cccc(Cl)c1)C(=O)N[C@H](C=O)C[C@@H]1CCNC1=O (stereo partly drawn) [Compound C157, 2-(3-Chlorophenyl)-2-methyl-1-phenylpropyl ((S)-1-oxo-1-(((S)-1-oxo-3-((S)-2-oxopyrrolidin-3-yl)propan-2-yl)amino)hexan-2-yl) carbamate]	10.00
CC(=O)N1CCC2(CC1)CC(CC(C=O)NC(=O)[C@H](CC(C)C)NC(=O)OCC1CCC(F)(F)CC1)C(=O)N2 (stereo partly drawn) [Compound C64, (4,4-Difluorocyclohexyl)methyl ((2S)-1-((1-(8-acetyl-2-oxo-1,8-diazaspiro[4.5]decan-3-yl)-3-oxopropan-2-yl)amino)-4-methyl-1-oxopentan-2-yl)carbamate]	7.00
